In US5695970A, “Glucan lyase producing 1,5-anhydrofructose” (priority 1992, dated 1997):
“Also recorded” adds a separate entry of the source.

Legend:
α-1,4-glucan lyase [1] = test: Reaction mode: complete degradation of substrates by the lyase and final products; type: biochemical, Gracilariopsis lemaneiformis; details: for time needed for a complete degradation: enzyme 6 μg protein per ml, 30° C.
Experimental: In an enzyme concentration of 6 μg protein per ml, at 30° C., the time needed for a complete degradation of 1% maltose solution was 1 h, for 2% maltose solution, 3 h, for 5% maltose solution, 10-24 h, for 2% maltoheptaose, 10-24 h. This is in sharp contrast to many polysaccharides' depolymerization enzymes, whose reaction stops with the accumulation of products or with the decrease in substrate size.
When maltoheptaose was used as a substrate, the final products are 1,5-anhydrofructose and glucose and their ratio is 6:1. The intermediate products are a mixture of maltosaccharides with a DP number between 2-6 during the process of the reaction. With the increase of reaction time, the DP number of the maltosaccharides decreased and finally all the maltosaccharides disappeared. When maltose was used as a substrate, the ratio of 1,5-anhydrofructose to glucose was 1:1. With the increase of DP number, the yield of glucose decreased, while the yield of 1,5-anhydrofructose increased. When a linear chain of a α-1,4-glucan is long enough, the yield of 1,5-anhydrofructose can be nearly 100%.

α-1,4-glucan lyase [2] = test: Inhibition studies of α-1,4-glucan lyase activity; type: biochemical, Gracilariopsis lemaneiformis; details: for inhibition of enzymic activity: 0.1M; for inhibition of the degradation of maltose: 3 mg/ml polysaccharide
Experimental: (§1) The reaction mixture for the assay of α-1,4-glucan lyase was composed of 240 μl 62.5 mM Mops-NaOH containing 6 mg soluble starch (pH 6.2), the enzyme preparation and distilled water to a final volume of 300 μl. The reaction was carried out at 30° C. for 10-30 min. Liberated 1,5-anhydrofructose was determined by monitoring the absorbance at 546 nm after the addition of 3,5-dinitrosalicylic acid reagent. Soluble starch in the reaction mixture may be replaced by other substrates and the final substrate concentration may be varied as indicated in the text. The reaction time and enzyme concentration used in enzyme activity assay have been chosen to ensure the linearity of the reaction rate. One unit of α-1,4-glucan lyase activity is defined as the amount of enzyme which liberates 1μmol of 1,5-anhydrofructose min^-1 under the conditions described above.

α-1,4-glucan lyase [3] = test: Elution of α-1,4-glucan lyase from the starch column by glucans; type: binding, Gracilariopsis lemaneiformis; details: glucan 8 mg ml^-1; column 1 ml, 5 ml eluate; recovery with amylopectin = 100%
Experimental: In these experiments, as much as 5 times of the column volume was collected. At high pH, for example, 50 mM bicine-NaOH (pH 8.2), the binding of the enzyme onto the starch column was loose and it was eluted by subsequent washing with the same buffer. Neither ConA-Sepharose nor cycloheptaamylose-Sepharose 6B was effective for the purification of the enzyme because of low recovery.
The efficiency of various glucans (8 mg ml^-1) on the elution of
α-1,4-glucan lyase from the starch column. The column volume
was 1 ml and 5 ml eluate was pooled. The recovery of
α-1,4-glucan lyase eluted by amylopectin was used as 100%.
Gracilariopsis lemaneiformis (originally collected from China), 30 g, was sampled directly from the culture cylinder and was rinsed briefly with deionized water and blotted dry with paper tissue. The following operations were carried out at 0°-4° C. The thalli were cut to pieces with scissors and pulverized under liquid nitrogen. To 1 g alga powder was added 3 volumes of buffer A (50 mM citrate-NaOH, pH 6.6), filtered through two-layer cloth and centrifuged at 36,600×g for 10 min. The supernatant (cell-free extract) was loaded onto a starch column (4.1×1.5 cm) pre-equilibrated with buffer A. After loading, the column was extensively washed with 4 volumes of buffer A, volumes of buffer A containing 1M NaCl, 1 volume of buffer A, 1 volume of buffer B (50 mM imidazole-HCl, pH 6.6) in a flow speed of 24 ml h^-1. α-1,4-Glucan lyase was eluted with buffer B containing 10 mg ml^-1 amylopectin in a fraction size of 3.5 ml. To separate α-1,4-glucan lyase from the amylopectin, the active fractions of the eluate were pooled and applied onto a Q-Sepharose column (2.6×5 cm). The column was pre-equilibrated and later washed with buffer B. α-1,4-Glucan lyase was eluted with buffer B containing 0.7M NaCl. Active fractions were pooled and concentrated on a Centriprep CP30 (Amicon, USA) with a molecule weight cutoff of 30,000 and applied to a Sephacryl S-200 column (2.6×80 cm) pre-equilibrated and eluted with buffer A containing 0.2M NaCl. The flow speed was 60 ml h^-1 with a fraction size of 3.5 ml per tube. Active fractions were collected and concentrated again by using centriprep CP30.

α-1,4-glucan lyase [4] = test: Substrate specificity of α-1,4-glucan lyase (release of 1,5-anhydrofructose, DNS method, 15 min); type: biochemical, Gracilariopsis lemaneiformis; details: for substrate inhibition: higher substrate concentrations, 10 mg ml^-1 compared with 2 and 4 mg ml^-1
Experimental: When amylopectin was used as a substrate, the activity reached maximum 8 mg ml^-1 and then decreased slightly at 20 mg ml^-1. The same results were obtained with soluble starch and maltoheptaose. When maltotriose and maltose were used as substrates, the activity reached maximum at 2 mg ml^-1 and 6 mg ml^-1, respectively. Substrate inhibition became evident at higher concentrations, especially in the case of maltotriose. […] Generally, the inhibition degree decreased with the increase in DP number (Degree of Polymerization). When the activity measured at 10 mg ml^-1 was compared at 2 mg ml^-1 and 4 mg ml^-1, substrate inhibition could be clearly seen among the maltosaccharides of DP 3-5. In maltohexaose, the substrate inhibition was very low and was none in maltoheptaose. Among the maltosaccharides, maltotetraose and maltopentaose were the poorest substrates.
With PNPG1 (p-nitrophenyl-α-D-glucoside), the artificial substrate of α-glucosidase, reaction rate was the lowest.
Substrate Specificity of α-1,4-Glucan lyase.
The concentration of various substrates in the reaction mixture
was 10 mg ml^-1 except PNPG1, PNPG2, PNPG7, which was 2 mM.
The incubation time was 15 min. The degrading rate of maltoheptaose
was 84 μmol min^-1. mg^-1 protein.
as §1

α-1,4-glucan lyase [5] = test: Substrate specificity of α-1,4-glucan lyase, long term incubation (24 h), continuation of Table IV; type: biochemical, Gracilariopsis lemaneiformis
Experimental: The incubation time was 24 h.
as §1

[6] = substrate 10 mg ml^-1, incubation 15 min
[7] = substrate 2 mM, incubation 15 min

With `OC[C@H]1OC(O)[C@H](O)[C@@H](O)[C@@H]1O` (stereo partly shown) [Glucose, glucose] the “conversion of monosaccharide to 1,5-anhydrofructose by the lyase” value (from here on “conversion of monosaccharide”) (α-1,4-glucan lyase [1]) was “can not convert”, the “inhibition of enzymic activity” value (α-1,4-glucan lyase [2]; amylopectin as substrate) was “no inhibition” and the “inhibition of enzymic activity” value (α-1,4-glucan lyase [2]; maltose as substrate) was “around 22%”. The “product inhibition: effect on enzyme reaction rate” value (α-1,4-glucan lyase [2]; products accumulating during the enzyme reaction) was “negligible effect” and the “Elution Efficiency” value (α-1,4-glucan lyase [3]) was 0%.

In the case of `OC[C@H]1O[C@H](O[C@H]2[C@H](O)[C@@H](O)[C@@H](O[C@H]3[C@H](O)[C@@H](O)[C@@H](O[C@H]4[C@H](O)[C@@H](O)[C@@H](O[C@H]5[C@H](O)[C@@H](O)[C@@H](O[C@H]6[C@H](O)[C@@H](O)[C@@H](O[C@H]7[C@H](O)[C@@H](O)C(O)O[C@@H]7CO)O[C@@H]6CO)O[C@@H]5CO)O[C@@H]4CO)O[C@@H]3CO)O[C@@H]2CO)[C@H](O)[C@@H](O)[C@@H]1O` (stereo partly shown) [Maltoheptaose, maltoheptaose], the “time needed for a complete degradation” value (α-1,4-glucan lyase [1]; 2% maltoheptaose) is reported as 10 to 24 h, the substrate inhibition (α-1,4-glucan lyase [4]) is reported as “none” and the “Activity (% of Maltoheptaose)” value (α-1,4-glucan lyase [4]; [6]) is reported as 100.0%. For the same molecule, the degrading rate (α-1,4-glucan lyase [4]; [6]) was 84 μmol min^-1. mg^-1 protein and the “Elution Efficiency” value (α-1,4-glucan lyase [3]) was 94.3%.

`OC[C@H]1O[C@H](O[C@H]2[C@H](O)[C@@H](O)[C@H](O)O[C@@H]2CO)[C@H](O)[C@@H](O)[C@@H]1O` [Maltose, maltose] was tested, and the “time needed for a complete degradation” value (α-1,4-glucan lyase [1]; 1% solution) was 1 h, the “time needed for a complete degradation” value (α-1,4-glucan lyase [1]; 2% maltose solution) was 3 h and the “time needed for a complete degradation” value (α-1,4-glucan lyase [1]; 5% solution) was 10 to 24 h. The “substrate concentration at which the activity reached maximum” value (α-1,4-glucan lyase [4]) was 6 mg/mL, the substrate inhibition (α-1,4-glucan lyase [4]) was “showed substrate inhibition” and the “Activity (% of Maltoheptaose)” value (α-1,4-glucan lyase [4]; [6]) was 66.7%. For the same molecule, the “Elution Efficiency” value (α-1,4-glucan lyase [3]) was 56.4%.

`OC[C@H]1O[C@H](O[C@H]2[C@H](O)[C@@H](O)[C@@H](O[C@H]3[C@H](O)[C@@H](O)[C@@H](O[C@H]4[C@H](O)[C@@H](O)C(O)O[C@@H]4CO)O[C@@H]3CO)O[C@@H]2CO)[C@H](O)[C@@H](O)[C@@H]1O` (stereo partly shown) [Maltotetraose, maltotetraose] was tested, and the substrate inhibition (α-1,4-glucan lyase [4]) was “showed substrate inhibition”, the “Activity (% of Maltoheptaose)” value (α-1,4-glucan lyase [4]; [6]) was 27.8% and the “Elution Efficiency” value (α-1,4-glucan lyase [3]) was 65.7%.

For `O=[N+]([O-])c1ccc(O[C@H]2O[C@H](CO)[C@@H](O)[C@H](O)[C@H]2O)cc1` [PNPG1, p-nitrophenyl-α-D-glucoside], the “Activity (% of Maltoheptaose)” value (α-1,4-glucan lyase [4]; [7]) was 0.113%.

`O=[N+]([O-])c1ccc(O[C@H]2O[C@H](CO)[C@@H](O[C@H]3O[C@H](CO)[C@@H](O)[C@H](O)[C@H]3O)[C@H](O)[C@H]2O)cc1` [PNPG2, p-nitrophenyl-α-D-maltoside] was tested, and the “Activity (% of Maltoheptaose)” value (α-1,4-glucan lyase [4]; [7]) was 22.5%.

With `O=[N+]([O-])c1ccc(O[C@H]2O[C@H](CO)[C@@H](O[C@H]3O[C@H](CO)[C@@H](O[C@H]4O[C@H](CO)[C@@H](O[C@H]5O[C@H](CO)[C@@H](O[C@H]6O[C@H](CO)[C@@H](O[C@H]7O[C@H](CO)[C@@H](O[C@H]8O[C@H](CO)[C@@H](O)[C@H](O)[C@H]8O)[C@H](O)[C@H]7O)[C@H](O)[C@H]6O)[C@H](O)[C@H]5O)[C@H](O)[C@H]4O)[C@H](O)[C@H]3O)[C@H](O)[C@H]2O)cc1` [PNPG7, p-nitrophenyl-α-D-maltoheptaoside] the “Activity (% of Maltoheptaose)” value (α-1,4-glucan lyase [4]; [7]) was 100.0%.

In the case of `O=C(CO)[C@@H](O)[C@H](O)[C@H](O)CO` [fructose], the “conversion of monosaccharide” value (α-1,4-glucan lyase [1]) is reported as “can not convert”, the “inhibition of enzymic activity” value (α-1,4-glucan lyase [2]; amylopectin as substrate) is reported as “no inhibition” and the “inhibition of enzymic activity” value (α-1,4-glucan lyase [2]; maltose as substrate) is reported as “no inhibition”.

For `OC[C@H]1OC(O)[C@H](O)[C@@H](O)[C@H]1O` (stereo partly shown) [galactose], the “conversion of monosaccharide” value (α-1,4-glucan lyase [1]) was “can not convert”, the “inhibition of enzymic activity” value (α-1,4-glucan lyase [2]; amylopectin as substrate) was “no inhibition” and the “inhibition of enzymic activity” value (α-1,4-glucan lyase [2]; maltose as substrate) was “no inhibition”.

With `OC[C@H]1OC(O)[C@@H](O)[C@@H](O)[C@@H]1O` (stereo partly shown) [mannose] the “conversion of monosaccharide” value (α-1,4-glucan lyase [1]) was “can not convert”, the “inhibition of enzymic activity” value (α-1,4-glucan lyase [2]; amylopectin as substrate) was “no inhibition” and the “inhibition of enzymic activity” value (α-1,4-glucan lyase [2]; maltose as substrate) was “no inhibition”.

For amylopectin, the “inhibition of the degradation of maltose” value (α-1,4-glucan lyase [2]; maltose as substrate) was “around 67%”, the type of inhibition (α-1,4-glucan lyase [2]; maltose as substrate) was “mixed competive/non-competive” and the “inhibition of the algal enzyme (in words)” value (α-1,4-glucan lyase [2]; summary statement, maltose as substrate) was “inhibited”. For the same molecule, the “substrate concentration at which the activity reached maximum” value (α-1,4-glucan lyase [4]) was 8 mg/mL, the “Activity (% of Maltoheptaose)” value (α-1,4-glucan lyase [4]; [6]) was 94.1% and the “Elution Efficiency” value (α-1,4-glucan lyase [3]) was 100%.

For amylose, the “Activity (% of Maltoheptaose)” value (α-1,4-glucan lyase [4]; [6]) was 100.4%.

floridean starch was tested, and the “Activity (% of Maltoheptaose)” value (α-1,4-glucan lyase [4]; [6]) was 61.9%.

glycogen was tested, and the “inhibition of the degradation of maltose” value (α-1,4-glucan lyase [2]; maltose as substrate) was ~47%, the “Activity (% of Maltoheptaose)” value (α-1,4-glucan lyase [4]; [6]) was 77.6% and the “Elution Efficiency” value (α-1,4-glucan lyase [3]) was 87.1%.

For pullulan, the “activity of the lyase with the substrate (in words)” value (α-1,4-glucan lyase [5]; long term incubation at 30° C.) was “no detectable activity; also recorded: little or no activity”, the Product released (α-1,4-glucan lyase [5]; substrate 4 mg ml^-1, 1.64 μg enzyme, 24 h) was 0 nmol and the “inhibition of the degradation of maltose” value (α-1,4-glucan lyase [2]; maltose as substrate) was “did not inhibit”. The “Elution Efficiency” value (α-1,4-glucan lyase [3]) was 32.3%.

For soluble starch, the “Activity (% of Maltoheptaose)” value (α-1,4-glucan lyase [4]; [6]) was 100.2%.

In the case of β-limit dextrin, the “Activity (% of Maltoheptaose)” value (α-1,4-glucan lyase [4]; [6]) is reported as 22.7%.
